In ChEMBL document CHEMBL1122947, “Fluorine-containing amino acids and their derivatives. 4. Synthesis and antibacterial activity of threo and erythro 1-fluorodehydroxylated chloramphenicol analogues” (1985):
Values after ≈ are worked out from the molar mass of the structure shown.

Key:
Aspergillus fumigatus = assay: In vitro antifungal activity against Aspergillus fumigatus; format: functional
Escherichia coli = assay: In vitro antibacterial activity against Escherichia coli; format: functional
Pseudomonas aeruginosa = assay: In vitro antibacterial activity against Pseudomonas aeruginosa; format: functional
Staphylococcus aureus = assay: In vitro antibacterial activity against Staphylococcus aureus; format: functional
Trichophyton benhamiae = assay: In vitro antifungal activity against Trichophyton asteroides; format: functional
Streptococcus pyogenes = assay: In vitro antibacterial activity against Streptococcus pyogenes; format: functional
Klebsiella pneumoniae = assay: In vitro antibacterial activity against Klebsiella pneumoniae; format: functional
Trichophyton asteroides = assay: In vitro antifungal activity against Trichophyton asteroides
[1] = Klebsiella pneumoniae, read-out: MIC

Row | SMILES | MIC (Aspergillus fumigatus) | MIC (Escherichia coli) | MIC (Pseudomonas aeruginosa) | MIC (Staphylococcus aureus) | MIC (Trichophyton benhamiae) | MIC (Streptococcus pyogenes) | MIC (Klebsiella pneumoniae; [1]) | MIC (Trichophyton asteroides) | MIC (Klebsiella pneumoniae)
1 | O=C(NC(CO)C(F)c1ccccc1)C(Cl)Cl (stereo not drawn) | > 100 µg/mL | > 100 µg/mL | > 100 µg/mL | > 100 µg/mL | > 100 µg/mL | > 100 µg/mL | > 100 µg/mL | > 100 µg/mL | 
2 | O=C(NC(CO)C(F)c1ccc([N+](=O)[O-])cc1)C(Cl)Cl (stereo in doubt; 3) |  |  |  |  |  |  |  |  | >100 µg/mL
3 | O=C(NC(CO)C(F)c1ccc([N+](=O)[O-])cc1)C(Cl)Cl (stereo in doubt; 11) | > 100 µg/mL | > 100 µg/mL | > 100 µg/mL | > 100 µg/mL | > 100 µg/mL | > 100 µg/mL | 50 µg/mL (≈ 154 µM) | > 100 µg/mL | 

The remaining lines, values ahead:

Row | MIC (Aspergillus fumigatus) | MIC (Escherichia coli) | MIC (Pseudomonas aeruginosa) | MIC (Staphylococcus aureus) | MIC (Trichophyton benhamiae) | MIC (Streptococcus pyogenes) | MIC (Klebsiella pneumoniae; [1]) | MIC (Trichophyton asteroides) | MIC (Klebsiella pneumoniae) | SMILES
4 | > 100 µg/mL | > 100 µg/mL | > 100 µg/mL | > 100 µg/mL | > 100 µg/mL | > 100 µg/mL | > 100 µg/mL | > 100 µg/mL |  | O=C(NC(CO)C(F)c1ccccc1[N+](=O)[O-])C(Cl)Cl (stereo not drawn)
5 | > 100 µg/mL | > 100 µg/mL | > 100 µg/mL | > 100 µg/mL | > 100 µg/mL | > 100 µg/mL | > 100 µg/mL | > 100 µg/mL |  | O=C(NC(CO)C(F)c1cccc([N+](=O)[O-])c1)C(Cl)Cl (stereo not drawn)
